What was measured:
[1] = Cytotoxicity against human HPLF cells assessed as reduction in cell viability incubated for 48 hrs by MTT assay; format: functional
Carbonic anhydrase 9 [2] = molecular target: T1, Carbonic anhydrase 9 (Homo sapiens, UniProt Q16790); test: Inhibition of human CA9 preincubated for 15 mins by phenol red dye based stopped flow CO2 hydration assay
[3] = Cytotoxicity against human HPC cells assessed as reduction in cell viability incubated for 48 hrs by MTT assay; format: functional
HSC-2 = test: Cytotoxicity against human HSC-2 cells assessed as reduction in cell viability incubated for 48 hrs by MTT assay; format: functional
HSC-3 = test: Cytotoxicity against human HSC-3 cells assessed as reduction in cell viability incubated for 48 hrs by MTT assay; format: functional
Carbonic anhydrase 12 = Carbonic anhydrase 12 (Homo sapiens, UniProt O43570); test: Inhibition of human CA12 preincubated for 15 mins by phenol red dye based stopped flow CO2 hydration assay
Carbonic anhydrase 12, sequence (O43570 whole entry): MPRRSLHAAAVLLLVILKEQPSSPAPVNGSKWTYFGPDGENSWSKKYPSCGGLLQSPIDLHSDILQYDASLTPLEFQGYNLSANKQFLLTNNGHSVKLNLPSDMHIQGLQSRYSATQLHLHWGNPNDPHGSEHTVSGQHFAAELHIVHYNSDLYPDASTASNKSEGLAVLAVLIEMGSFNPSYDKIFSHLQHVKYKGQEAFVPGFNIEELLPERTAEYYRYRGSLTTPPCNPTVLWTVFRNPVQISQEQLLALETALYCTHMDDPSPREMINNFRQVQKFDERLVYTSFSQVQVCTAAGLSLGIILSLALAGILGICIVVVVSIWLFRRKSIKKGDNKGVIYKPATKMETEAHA

Ca9-22 = test: Cytotoxicity against human Ca9-22 cells assessed as reduction in cell viability incubated for 48 hrs by MTT assay; format: functional
[4] = Cytotoxicity against human HGF cells assessed as reduction in cell viability incubated for 48 hrs by MTT assay; format: functional
Carbonic anhydrase 9 [5] = molecular target: T1, Carbonic anhydrase 9
Carbonic anhydrase 1 [6] = molecular target: T2, Carbonic anhydrase 1 (Homo sapiens, UniProt P00915); test: Inhibition of human recombinant CA1
T2 sequence (P00915 whole entry): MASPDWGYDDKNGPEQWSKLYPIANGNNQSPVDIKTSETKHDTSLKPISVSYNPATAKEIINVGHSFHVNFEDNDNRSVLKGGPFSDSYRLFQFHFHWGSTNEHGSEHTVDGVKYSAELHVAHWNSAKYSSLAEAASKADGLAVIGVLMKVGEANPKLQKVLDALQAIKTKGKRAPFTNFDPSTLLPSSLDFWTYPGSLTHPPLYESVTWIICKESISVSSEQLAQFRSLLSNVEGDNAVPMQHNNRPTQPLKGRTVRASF

Carbonic anhydrase 4 = Carbonic anhydrase 4 (Homo sapiens, UniProt P22748); test: Inhibition of human recombinant CA4
Carbonic anhydrase 4, sequence (P22748 whole entry): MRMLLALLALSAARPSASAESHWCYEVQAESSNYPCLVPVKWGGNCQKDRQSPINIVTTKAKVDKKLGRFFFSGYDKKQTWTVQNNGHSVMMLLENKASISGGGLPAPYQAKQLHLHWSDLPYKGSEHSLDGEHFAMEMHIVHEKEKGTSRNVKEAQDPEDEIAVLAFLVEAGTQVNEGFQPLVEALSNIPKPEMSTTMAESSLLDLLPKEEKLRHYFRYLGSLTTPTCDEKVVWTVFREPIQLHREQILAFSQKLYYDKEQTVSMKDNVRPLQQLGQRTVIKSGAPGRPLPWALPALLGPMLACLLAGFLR

Carbonic anhydrase 2 [7] = molecular target: T3, Carbonic anhydrase 2 (Homo sapiens, UniProt P00918); test: Inhibition of human recombinant CA2
Carbonic anhydrase 1 [8] = molecular target: T2, Carbonic anhydrase 1
Carbonic anhydrase 2 [9] = molecular target: T3, Carbonic anhydrase 2
Mus musculus [10] = species on record: Mus musculus; test: Antidepressant activity in Swiss albino mouse assessed as decrease in immobility time by tail suspension test; format: functional; note: test concentration or dose not given here
Mus musculus [11] = species on record: Mus musculus; test: Antidepressant activity in Swiss albino mouse assessed as decrease in immobility time by forced swimming test; format: functional; note: test concentration or dose not given here

Compound	Ki (Carbonic anhydrase 9 [2]) [µM]	Ki (Carbonic anhydrase 12) [µM]	Ki (Carbonic anhydrase 9 [5]) [µM]	Ki (Carbonic anhydrase 1 [6]) [µM]	Ki (Carbonic anhydrase 4) [µM]	Ki (Carbonic anhydrase 2 [7]) [µM]	CC50 [1] [µM]	CC50 [3] [µM]	CC50 (HSC-2) [µM]	CC50 (HSC-3) [µM]	CC50 (Ca9-22) [µM]	CC50 [4] [µM]	other results
NS(=O)(=O)c1ccc(N2N=C(c3ccc(O)cc3)CC2c2ccc(Cl)cc2Cl)cc1 (stereo not given)	0.0535	0.0062	–	–	–	–	39.3	39.3	39.3	39.3	39.3	39.3	–
COc1ccc(C2CC(c3ccc(O)cc3)=NN2c2ccc(S(N)(=O)=O)cc2)cc1 (stereo not given)	0.0535	0.0062	–	–	–	–	39.3	39.3	39.3	39.3	39.3	39.3	–
CC(=O)N1N=C(c2ccc(OS(N)(=O)=O)cc2)CC1c1ccc([N+](=O)[O-])cc1 (stereo not given)	–	–	0.0148	2.46	0.0177	0.0004	–	–	–	–	–	–	–
Cc1nc(-c2ccc(F)cc2)ccc1C1=NNC(c2cc(F)cc(F)c2)C1 (stereo not given)	–	–	–	–	–	–	–	–	–	–	–	–	Time (Mus musculus [10]): 70.33 s; Time (Mus musculus [11]): 66.67 s
Cc1ccc(C2CC(c3ccc(O)cc3)=NN2c2ccc(S(N)(=O)=O)cc2)cc1 (stereo not given)	–	–	–	–	–	–	39.3	39.3	39.3	39.3	39.3	39.3	–
COc1cc(-c2ccc(C3=NNC(c4ccc(Br)cc4)C3)c(C)n2)cc(OC)c1OC (stereo not given)	–	–	–	–	–	–	–	–	–	–	–	–	Time (Mus musculus [10]): 70.33 s; Time (Mus musculus [11]): 66.67 s
Cc1nc(-c2ccc(F)cc2)ccc1C1=NNC(c2ccc(Br)cc2)C1 (stereo not given)	–	–	–	–	–	–	–	–	–	–	–	–	Time (Mus musculus [10]): 70.33 s; Time (Mus musculus [11]): 66.67 s
COc1ccc(-c2ccc(C3=NNC(c4ccc(Br)cc4)C3)c(C)n2)cc1OC (stereo not given)	–	–	–	–	–	–	–	–	–	–	–	–	Time (Mus musculus [10]): 70.33 s; Time (Mus musculus [11]): 66.67 s
Cc1nc(-c2ccc(Br)cc2)ccc1C1=NNC(c2cc(F)cc(F)c2)C1 (stereo not given)	–	–	–	–	–	–	–	–	–	–	–	–	Time (Mus musculus [10]): 70.33 s; Time (Mus musculus [11]): 66.67 s

The next lines start with results.

Ki (Carbonic anhydrase 9 [2]) [µM]	Ki (Carbonic anhydrase 12) [µM]	Ki (Carbonic anhydrase 9 [5]) [µM]	Ki (Carbonic anhydrase 1 [6]) [µM]	Ki (Carbonic anhydrase 4) [µM]	Ki (Carbonic anhydrase 2 [7]) [µM]	Compound	CC50 [1] [µM]	CC50 [3] [µM]	CC50 (HSC-2) [µM]	CC50 (HSC-3) [µM]	CC50 (Ca9-22) [µM]	CC50 [4] [µM]	other results
0.0535	0.0062	–	–	–	–	NS(=O)(=O)c1ccc(N2N=C(c3ccc(O)cc3)CC2c2ccc(Cl)cc2)cc1 (stereo not given)	39.3	39.3	39.3	39.3	39.3	39.3	–
–	–	0.0148	2.46	0.0177	0.0004	CC(=O)N1N=C(c2ccc(OS(N)(=O)=O)cc2)CC1c1cc(Cl)ccc1Cl (stereo not given)	–	–	–	–	–	–	–
–	–	0.0148	2.46	0.0177	0.0004	CC(=O)N1N=C(c2ccc(OS(N)(=O)=O)cc2)CC1c1ccccc1Cl (stereo not given)	–	–	–	–	–	–	–
–	0.0062	–	–	–	–	NS(=O)(=O)c1ccc(N2N=C(c3ccc(O)cc3)CC2c2cccs2)cc1 (stereo not given)	39.3	39.3	39.3	39.3	39.3	39.3	Ki (Carbonic anhydrase 1 [8]): 0.232 µM; Ki (Carbonic anhydrase 2 [9]): 0.342 µM
–	–	0.0148	2.46	0.0177	0.0004	CC(=O)N1N=C(c2ccc(OS(N)(=O)=O)cc2)CC1c1ccc(C(F)(F)F)cc1 (stereo not given)	–	–	–	–	–	–	–
0.0535	0.0062	–	–	–	–	NS(=O)(=O)c1ccc(N2N=C(c3ccc(O)cc3)CC2c2ccc(F)cc2)cc1 (stereo not given)	39.3	39.3	39.3	39.3	39.3	39.3	–
–	–	0.0148	2.46	0.0177	0.0004	CC(=O)N1N=C(c2ccc(OS(N)(=O)=O)cc2)CC1c1ccccc1 (stereo not given)	–	–	–	–	–	–	–
0.0535	0.0062	–	–	–	–	NS(=O)(=O)c1ccc(N2N=C(c3ccc(O)cc3)CC2c2ccc(Br)cc2)cc1 (stereo not given)	39.3	39.3	39.3	39.3	39.3	39.3	–
–	–	0.0148	2.46	0.0177	0.0004	CC(=O)N1N=C(c2ccc(F)cc2)CC1c1cccc(OS(N)(=O)=O)c1 (stereo not given)	–	–	–	–	–	–	–
–	–	0.0148	2.46	0.0177	0.0004	COc1ccc(C2=NN(C(C)=O)C(c3ccc(OS(N)(=O)=O)cc3)C2)cc1 (stereo not given)	–	–	–	–	–	–	–
0.0535	0.0062	–	–	–	–	NS(=O)(=O)c1ccc(N2N=C(c3ccc(O)cc3)CC2c2ccc([N+](=O)[O-])cc2)cc1 (stereo not given)	39.3	39.3	39.3	39.3	–	39.3	–

Reference: ChEMBL document CHEMBL5260848, “Recent advancements in the development of bioactive pyrazoline derivatives” (Eur J Med Chem, 2020)
